Data published in the NIST ThermoML archive (doi:10.1021/je5008372).

Key:
[1] = mn = molality of the nth substance listed, in mol/kg; details: 86.8 kPa, Liquid; for viscosity: Capillary tube (Ostwald / Ubbelohde) method; for speed of sound: Sing-around technique in a fixed-path interferometer; for mass density: Vibrating tube method
[2] = refractive index (Na D-line) (dimensionless); mn = molality of the nth substance listed, in mol/kg; details: 86.8 kPa, Liquid, Standard Abbe refractometry

CC(=O)Oc1ccccc1C(=O)O [2-acetoxybenzoic acid] + CC#N
Details | mass density, [1] [kg/m3] | refractive index, [2] | speed of sound, [1] [m/s] | viscosity, [1] [mPa·s]
288.15 K, m1 = 0.0402 | 789.756 | 1.3467 | 1319.9 | 0.394
288.15 K, m1 = 0.0834 | 792.285 | 1.3476 | 1320.3 | 0.398
288.15 K, m1 = 0.11 | 793.822 | 1.3483 | 1320.6 | 0.402
288.15 K, m1 = 0.1394 | 795.495 | 1.349 | 1320.8 | 0.405
288.15 K, m1 = 0.1708 | 797.242 | 1.3498 | 1321.1 | 0.408
288.15 K, m1 = 0.2076 | 799.277 | 1.3505 | 1321.4 | 0.412
288.15 K, m1 = 0.2453 | 801.312 | 1.3513 | 1321.8 | 0.416
288.15 K, m1 = 0.2705 | 802.661 | 1.3519 | 1322 | 0.419
288.15 K, m1 = 0.3006 | 804.272 | 1.3527 | 1322.2 | 0.422
298.15 K, m1 = 0.0402 | 778.992 | 1.3422 | 1279.3 | 0.349
298.15 K, m1 = 0.0834 | 781.508 | 1.3431 | 1279.7 | 0.353
298.15 K, m1 = 0.11 | 783.035 | 1.3439 | 1279.9 | 0.355
298.15 K, m1 = 0.1394 | 784.705 | 1.3446 | 1280.2 | 0.358
298.15 K, m1 = 0.1708 | 786.446 | 1.3453 | 1280.4 | 0.362
298.15 K, m1 = 0.2076 | 788.483 | 1.3462 | 1280.7 | 0.365
298.15 K, m1 = 0.2453 | 790.515 | 1.347 | 1281 | 0.369
298.15 K, m1 = 0.2705 | 791.87 | 1.3477 | 1281.2 | 0.371
298.15 K, m1 = 0.3006 | 793.487 | 1.3484 | 1281.5 | 0.375
308.15 K, m1 = 0.0402 | 768.176 | 1.3378 | 1239 | 0.316
308.15 K, m1 = 0.0834 | 770.675 | 1.3388 | 1239.3 | 0.319
308.15 K, m1 = 0.11 | 772.198 | 1.3397 | 1239.5 | 0.322
308.15 K, m1 = 0.1394 | 773.857 | 1.3404 | 1239.7 | 0.325
308.15 K, m1 = 0.1708 | 775.597 | 1.3412 | 1240 | 0.328
308.15 K, m1 = 0.2076 | 777.624 | 1.3423 | 1240.3 | 0.331
308.15 K, m1 = 0.2453 | 779.658 | 1.3431 | 1240.5 | 0.334
308.15 K, m1 = 0.2705 | 781.016 | 1.3438 | 1240.8 | 0.337
308.15 K, m1 = 0.3006 | 782.624 | 1.3446 | 1241 | 0.34
318.15 K, m1 = 0.0402 | 757.205 | 1.3333 | 1198.8 | 0.292
318.15 K, m1 = 0.0834 | 759.697 | 1.3345 | 1199.2 | 0.295
318.15 K, m1 = 0.11 | 761.21 | 1.3352 | 1199.3 | 0.297
318.15 K, m1 = 0.1394 | 762.869 | 1.3359 | 1199.5 | 0.3
318.15 K, m1 = 0.1708 | 764.615 | 1.3367 | 1199.7 | 0.303
318.15 K, m1 = 0.2076 | 766.635 | 1.3377 | 1199.9 | 0.306
318.15 K, m1 = 0.2453 | 768.667 | 1.3388 | 1200.2 | 0.309
318.15 K, m1 = 0.2705 | 770.017 | 1.3395 | 1200.4 | 0.311
318.15 K, m1 = 0.3006 | 771.63 | 1.3403 | 1200.7 | 0.314
